In US4959375A, “Piperidine derivatives useful as 5-HT3 antagonists” (John Wyeth & Brothers Limited, priority 1988, dated 1990):

Target: T1, 5-HT3 receptors (Oryctolagus cuniculus, UniProt A0A5F9C9J3)
T1 construct: 5-HT3 receptors present on sympathetic nerve terminals in the heart; from tissue; host or cells: isolated right atrium of the rabbit heart
T1 sequence (A0A5F9C9J3 1-494): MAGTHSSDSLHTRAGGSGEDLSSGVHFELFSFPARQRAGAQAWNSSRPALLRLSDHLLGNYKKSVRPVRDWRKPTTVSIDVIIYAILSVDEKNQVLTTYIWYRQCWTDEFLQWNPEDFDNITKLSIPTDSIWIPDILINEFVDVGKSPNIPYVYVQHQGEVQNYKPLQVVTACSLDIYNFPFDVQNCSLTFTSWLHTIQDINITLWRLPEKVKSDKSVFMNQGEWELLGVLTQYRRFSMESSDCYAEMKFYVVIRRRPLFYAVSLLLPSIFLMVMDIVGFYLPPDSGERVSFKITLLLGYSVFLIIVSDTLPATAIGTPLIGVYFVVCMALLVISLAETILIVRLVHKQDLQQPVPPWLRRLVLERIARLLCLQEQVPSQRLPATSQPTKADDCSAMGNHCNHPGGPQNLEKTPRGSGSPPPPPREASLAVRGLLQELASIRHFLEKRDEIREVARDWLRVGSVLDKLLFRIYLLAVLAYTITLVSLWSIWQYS
Test: 5-HT3 antagonistic activity in the isolated right atrium of the rabbit heart
Conditions: chronotropic response to 10^-5 M 5-HT, read-out: -log IC50 (IC50 is the concentration of antagonist which reduces the chronotropic response to 10^-5 M 5-HT by 50%) (converted)
Protocol: The compounds of the invention are tested for 5-HT3 antagonistic activity in the isolated right atrium of the rabbit heart based upon the method of Fozard J. R., Naunyn Schmiedeberg's Arch. Pharmacol., 1984, 326, 36-44. This procedure relies upon the ability of 5-HT to stimulate 5-HT3 receptors present on sympathetic nerve terminals in the heart, causing release of noradrenaline which evokes an increase in the spontaneous rate of beating. The antagonist potency is expressed as -log IC50 (where IC50 is the concentration of antagonist which reduces the chronotropic response to 10^--5 M 5-HT by 50%).

Row | SMILES | IC50 [nM]
1 | CN(C)C1CCCN(C(=O)c2c[nH]c3ccccc23)C1 (centres unmarked) [Example 1, 3-Dimethylamino-1-[[(1H)-indol 3 yl]carbonyl]piperidine] | 20
2 | CN(C)C1CCCN(C(=O)c2n[nH]c3ccccc23)C1 (centres unmarked) [Example 4, 3-Dimethylamino-1-[[(1H)-indazol 3 yl]carbonyl]piperidine] | 7.94
